Assay results reported in patent US8404670B2 (Sunovion Pharmaceuticals Inc., priority 2009, dated 2013).

Molecular target: T1, human histamine H3 receptor (Homo sapiens, UniProt Q9Y5N1)
T1 construct: host or cells: cells expressing the human H3 receptor
Test: H3 GTPγS assay (SPA method), histamine H3 in vitro assay
Assay type: biochemical
Conditions: GTPγ[35S] binding to membranes of cells expressing human H3; antagonist mode with R-γ-Me-Histamine at EC80 (30 nM); in one embodiment HCl salts tested; read-out: Potency (functional potency as indicated by IC50)
Procedure: H3 GTPγS assay (SPA method) was performed at EuroScreen (Belgium, ES-392-C) using conventional methods. Briefly, cells expressing the human histamine H3 receptor were homogenized in 15 mM Tris-HCl pH 7.5, 2 mM MgCl2, 0.3 mM EDTA, and 1 mM EGTA. Membranes were washed twice in the above tris buffer, collected by centrifugation (40,000×g, 25 min), and re-suspended in 75 mM Tris-HCl pH 7.5, 12.5 mM MgCl2, 0.3 mM EDTA, 1 mM EGTA, and 250 mM sucrose. Membranes were frozen in liquid nitrogen until use. On the day of the assay, membranes were thawed and diluted in assay buffer (20 mM HEPES pH 7.4, 100 mM NaCl, 10 μg/ml saponin, 1 mM MgCl2) to give 500 μg/ml and mixed (v/v) with GDP in assay buffer for a final GDP concentration of 10 μM and incubated on ice for at least 15 min. PVT-WGA beads (Amersham, RPNQ001) were diluted in assay buffer at 50 mg/mL and mixed with GTPγ[^35S] (Amersham, SJ1308) diluted in assay buffer to give ˜25,000 dpm/10 μL and mixed vol/vol just before the start of the reaction. The reaction was started by adding 50 μL of test compound, 20 μL of the membranes:GDP mix, 10 μL of buffer, and 20 μL of the GTPγ[^35S]:beads mix in a 96 well plate Optiplate™ (PerkinElmer, 6005299) covered with topseal (TopCount™, PerkinElmer), mixed with an orbital shaker for 2 min, incubated for 1 hour at room temperature, centrifuged for 10 min at 2000 rpm, incubated for 1 h at room temperature, and counted for 1 min in a TopCount™ reader (PerkinElmer). Dose response curves and IC50 values (concentration to inhibit the reaction by 50%) were calculated by nonlinear regression using XLfit software (IDBS).
For antagonists testing, 10 μL of a reference agonist (R-γ-Me-Histamine) instead of 10 μL buffer was added at a concentration corresponding to the EC80 (30 nM). Control ligands were R-γ-Me-Histamine (Tocris, 0569), Imetit (Sigma, I-135), Thioperamide (Tocris, 0644), and Clobenpropit (Tocris, 0754) diluted in assay buffer.
The compounds provided herein were tested in the histamine H3 in vitro assay. In one embodiment, the respective HCl salts of the compounds provided herein were prepared using standard chemical procedures and tested in the histamine H3 in vitro assay.

T1 sequence (Q9Y5N1 whole entry): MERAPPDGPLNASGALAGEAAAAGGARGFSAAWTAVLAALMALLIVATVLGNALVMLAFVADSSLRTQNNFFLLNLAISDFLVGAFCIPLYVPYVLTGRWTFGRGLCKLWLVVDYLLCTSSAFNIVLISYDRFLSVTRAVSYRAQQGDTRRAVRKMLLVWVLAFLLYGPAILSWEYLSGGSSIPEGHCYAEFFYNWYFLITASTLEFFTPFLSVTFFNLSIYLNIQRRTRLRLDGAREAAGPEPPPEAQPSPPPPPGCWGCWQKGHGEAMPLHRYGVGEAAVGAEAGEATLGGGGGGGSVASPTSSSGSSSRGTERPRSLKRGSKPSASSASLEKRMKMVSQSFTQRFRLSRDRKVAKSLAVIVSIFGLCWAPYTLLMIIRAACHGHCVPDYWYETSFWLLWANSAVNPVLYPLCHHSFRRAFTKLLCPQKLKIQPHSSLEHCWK

Structure (SMILES): CC(=O)N1CCc2c(ccc3c2nc2n3CCN(C3CCC3)CC2)C1 [Compound 188, 1-(10-cyclobutyl-9,10,11,12-tetrahydro-1H-[1,4]diazepino[1′,7′:1,2]imidazo[4,5-f]isoquinolin-3(2H,4H,8H)-yl)ethanone]
- IC50: ≤ 1 µM

Structure (SMILES): c1ccc(N2CCN(c3ccc4c(c3)nc3n4CCN(C4CCC4)CC3)CC2)nc1 [Compound 230, 3-cyclobutyl-8-(4-(pyridin-2-yl)piperazin-1-yl)-2,3,4,5-tetrahydro-1H-benzo[4,5]imidazo[1,2-d][1,4]diazepine]
- IC50: ≤ 0.01 µM

Structure (SMILES): c1ccc2c(c1)CCN(Cc1ccc3c(c1)nc1n3CCN(C3CCC3)CC1)C2 [Compound 163, 3-cyclobutyl-8-((3,4-dihydroisoquinolin-2(1H)-yl)methyl)-2,3,4,5-tetrahydro-1H-benzo[4,5]imidazo[1,2-d][1,4]diazepine]
- IC50: ≤ 0.01 µM

Structure (SMILES): c1ncc(CN2CCc3nc4cc(-c5ccc6[nH]ccc6c5)ccc4n3CC2)[nH]1 [Compound 20]
- IC50: ≥ 1 µM

Structure (SMILES): O=C(NCc1ccc2c(c1)nc1n2CCN(C2CCC2)CC1)OCc1ccccc1 [Compound 141, benzyl((3-cyclobutyl-2,3,4,5-tetrahydro-1H-benzo[4,5]imidazo[1,2-d][1,4]diazepin-8-yl)methyl)carbamate]
- IC50: ≤ 0.1 µM

Structure (SMILES): c1cc2c(cc1-c1ccc(N3CCCC3)nn1)nc1n2CCN(C2CCC2)CC1 [Compound 133, 3-cyclobutyl-8-(6-(pyrrolidin-1-yl)pyridazin-3-yl)-2,3,4,5-tetrahydro-1H-benzo[4,5]imidazo[1,2-d][1,4]diazepine]
- IC50: ≤ 0.1 µM

Structure (SMILES): FC1(F)CCCN(Cc2ccc3c(c2)nc2n3CCN(C3CCC3)CC2)C1 [Compound 162, 3-cyclobutyl-8-((3,3-difluoropiperidin-1-yl)methyl)-2,3,4,5-tetrahydro-1H-benzo[4,5]imidazo[1,2-d][1,4]diazepine]
- IC50: ≤ 0.01 µM

Structure (SMILES): c1cnc2[nH]cc(-c3ccc4c(c3)nc3n4CCN(C4CCC4)CC3)c2c1 [Compound 31]
- IC50: ≤ 0.01 µM

Structure (SMILES): CC1CCCC1N1CCc2nc3cc(-c4ccc(C#N)cc4)ccc3n2CC1 (racemic) [Compound 35, rac-cis/trans-4-(3-(2-methylcyclopentyl)-2,3,4,5-tetrahydro-1H-[1,4]diazepino[1,7-a]benzimidazol-9-yl)benzonitrile]
- IC50: ≤ 0.01 µM

Structure (SMILES): Fc1ccc(N2CCN(c3ccc4c(c3)nc3n4CCN(C4CCC4)CC3)CC2)cc1 [Compound 231, 3-cyclobutyl-8-(4-(4-fluorophenyl)piperazin-1-yl)-2,3,4,5-tetrahydro-1H-benzo[4,5]imidazo[1,2-d][1,4]diazepine]
- IC50: ≤ 0.01 µM

Structure (SMILES): N#Cc1ccc(-c2ccc3c(c2)nc2n3CCN(C3CCC3)CC2)cc1F [Compound 22]
- IC50: ≤ 0.01 µM

Structure (SMILES): Fc1ccc2c(c1)CN(c1ccc3c(c1)nc1n3CCN(C3CCC3)CC1)CC2 [Compound 177, 3-cyclobutyl-8-(7-fluoro-3,4-dihydroisoquinolin-2(1H)-yl)-2,3,4,5-tetrahydro-1H-benzo[4,5]imidazo[1,2-d][1,4]diazepine]
- IC50: ≤ 0.01 µM

Structure (SMILES): O=c1[nH]c2cc(-c3ccc4c(c3)nc3n4CCN(C4CCC4)CC3)ccc2o1 [Compound 215, 5-(3-cyclobutyl-2,3,4,5-tetrahydro-1H-benzo[4,5]imidazo[1,2-d][1,4]diazepin-8-yl)benzo[d]oxazol-2(3H)-one]
- IC50: ≤ 0.1 µM

Structure (SMILES): c1ccc(N2CCN(c3ccc4c(c3)nc3n4CCN(C4CCC4)CC3)CC2)cc1 [Compound 229, 3-cyclobutyl-8-(4-phenylpiperazin-1-yl)-2,3,4,5-tetrahydro-1H-benzo[4,5]imidazo[1,2-d][1,4]diazepine]
- IC50: ≤ 0.01 µM

Structure (SMILES): Brc1ccc2nc3n(c2c1)CCN(C1CCC1)CC3 [Compound 40]
- IC50: ≤ 0.1 µM

Structure (SMILES): c1cc2c(cc1-n1cnnn1)nc1n2CCN(C2CCC2)CC1 [Compound 154, 3-cyclobutyl-8-(1H-tetrazol-1-yl)-2,3,4,5-tetrahydro-1H-benzo[4,5]imidazo[1,2-d][1,4]diazepine]
- IC50: ≤ 0.1 µM

Structure (SMILES): c1cnc2c(c1)ccn2-c1ccc2c(c1)nc1n2CCN(C2CCC2)CC1 [Compound 70, 3-cyclobutyl-9-(1H-pyrrolo[2,3-b]pyridin-1-yl)-2,3,4,5-tetrahydro-1H-[1,4]diazepino[1,7-a]benzimidazole]
- IC50: ≤ 0.1 µM

Structure (SMILES): O=C(C1CC1)N1CCN(c2ccc3c(c2)nc2n3CCN(C3CCC3)CC2)CC1 [Compound 170, (4-(3-cyclobutyl-2,3,4,5-tetrahydro-1H-benzo[4,5]imidazo[1,2-d][1,4]diazepin-8-yl)piperazin-1-yl)(cyclopropyl)methanone]
- IC50: ≤ 0.01 µM

Structure (SMILES): c1ccc(-c2ccc3c(c2)nc2n3CCN(C3CCC3)CC2)nc1 [Compound 114, 3-cyclobutyl-9-(pyridin-2-yl)-2,3,4,5-tetrahydro-1H-[1,4]diazepino[1,7-a]benzimidazole]
- IC50: ≤ 0.1 µM

Structure (SMILES): NCc1ccc(-c2ccc3nc4n(c3c2)CCN(C2CCC2)CC4)cc1 [Compound 44]
- IC50: ≤ 0.1 µM

Structure (SMILES): c1cc(-c2ccc3c(c2)nc2n3CCN(C3CCC3)CC2)nc(N2CCCC2)n1 [Compound 131, 3-cyclobutyl-8-(2-(pyrrolidin-1-yl)pyrimidin-4-yl)-2,3,4,5-tetrahydro-1H-benzo[4,5]imidazo[1,2-d][1,4]diazepine]
- IC50: ≤ 0.01 µM

Structure (SMILES): N#Cc1ccc(-c2ccc3c(c2)nc2n3CCN(C3CCC3)CC2)cn1 [Compound 27, 5-(3-cyclobutyl-2,3,4,5-tetrahydro-1H-[1,4]diazepino[1,7-a]benzimidazol-9-yl)-picolinonitrile]
- IC50: ≤ 0.01 µM

Structure (SMILES): c1cc2c(cc1-c1cnc(N3CCCC3)cn1)nc1n2CCN(C2CCC2)CC1 [Compound 91]
- IC50: ≤ 0.1 µM

Structure (SMILES): c1cn(-c2ccc3c(c2)nc2n3CCN(C3CCC3)CC2)nn1 [Compound 150, 3-cyclobutyl-8-(1H-1,2,3-triazol-1-yl)-2,3,4,5-tetrahydro-1H-benzo[4,5]imidazo[1,2-d][1,4]diazepine]
- IC50: ≤ 0.1 µM

Structure (SMILES): CN(C)Cc1ccc2nc3n(c2c1)CCN(C1CCC1)CC3 [Compound 87]
- IC50: ≤ 0.01 µM

Structure (SMILES): c1c2c(cc3c1nc1n3CCN(C3CCC3)CC1)CCNC2 [Compound 183, 9-cyclobutyl-2,3,4,7,8,9,10,11-octahydro-1H-[1,4]diazepino[7′,1′:2,3]imidazo[4,5-g]isoquinoline]
- IC50: ≤ 0.1 µM

Structure (SMILES): CC(=O)N1CCN(c2ccc3c(c2)nc2n3CCN(C3CCC3)CC2)CC1 [Compound 167, 1-(4-(3-cyclobutyl-2,3,4,5-tetrahydro-1H-benzo[4,5]imidazo[1,2-d][1,4]diazepin-8-yl)piperazin-1-yl)ethanone]
- IC50: ≤ 0.01 µM

Structure (SMILES): c1cc2c(cc1N1CCN(C3CCOCC3)CC1)nc1n2CCN(C2CCC2)CC1 [Compound 103, 3-cyclobutyl-9-(4-(tetrahydro-2H-pyran-4-yl)piperazin-1-yl)-2,3,4,5-tetrahydro-1H-[1,4]diazepino[1,7-a]benzimidazole]
- IC50: ≤ 0.01 µM

Structure (SMILES): CC(C1CCC1)N1CCc2nc3cc(-c4ccc(CN)cc4)ccc3n2CC1 (centres unmarked) [Compound 5]
- IC50: ≤ 0.1 µM

Structure (SMILES): c1cnc(-c2cnc3c(c2)nc2n3CCN(C3CCC3)CC2)cn1 [Compound 236, 7-Aza-3-cyclobutyl-9-(pyrazin-2-yl)-2,3,4,5-tetrahydro-1H-[1,4]diazepino[1,7-a]benzimidazole]
- IC50: ≤ 1 µM

Structure (SMILES): CC(=O)Nc1ccc(-c2ccc3nc4n(c3c2)CCN(C2CCC2)CC4)cc1 [Compound 42]
- IC50: ≤ 1 µM

Structure (SMILES): Cc1ccc2nc(C)n(-c3ccc4c(c3)nc3n4CCN(C4CCC4)CC3)c2c1 [Compound 209, 3-cyclobutyl-8-(2,6-dimethyl-1H-benzo[d]imidazol-1-yl)-2,3,4,5-tetrahydro-1H-benzo[4,5]imidazo[1,2-d][1,4]diazepine]
- IC50: ≤ 0.01 µM
